Consider 2 compounds from article PMC9821961, “Ring-Modified Histidine-Containing Cationic Short Peptides Exhibit Anticryptococcal Activity by Cellular Disruption” (Molecules, 2022).

Series [1] deals with C. neoformans. Nature of the series: microbe, parasite or virus in culture. The format is cell-based, Cryptococcus neoformans. The note with it: 48 h. An outline of the steps:
(§1)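 Growth inhibition was measured by broth microdilution. MIC and IC50 were calculated from optical density at 600 nm after 48 h at 30 °C for Candida and Cryptococcus (10^3 CFU/mL, RPMI 1640 or YPED) and after 24 h at 37 °C for the Gram-positive bacteria (10^5 CFU/mL, Mueller Hinton).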

For series [2], the system named is Cryptococcal cells. The note with it: for MIC Alone: cryptococcal cells, agent alone.
For series [3], the system named is C. albicans. Nature of the series: microbe, parasite or virus in culture. The note with it: 48 h. The format is cell-based, Candida albicans. An outline of the steps:
as §1

In series [4] the test system is HeLa.
Procedure: (§2) The cells (50,000 cells/well) were seeded to the wells of the plate in Dulbecco’s Modified Eagle Medium (DMEM) supplemented with 10% fetal bovine serum at 37 °C overnight and incubated for 24 h to achieve confluency. Peptides at different concentrations of 50, 25, 12.5, 6.25, 3.12, 1.56 and 0.78 μg/mL were added to the cells in separate wells and incubated at 37 °C for 18 h. A further 20 µL MTT solution (5 mg/mL stock conc. in PBS) was added and the plate was incubated for another 3–4 h. To detect the viable cells that react with MTT to make formazan crystals, 120 μL of supernatant was removed and 100 μL DMSO was added to dissolve the crystals. Untreated cells and DMSO (10%) were used as negative and positive controls, respectively [37]. The percent viability of cells was calculated using equation:(2) % Cell viability=Av. Absorbance of treated cells/Av. Absorbance of control cells×100
A short description of series [5]: in vitro. The note with it: human, HEK-293 cells.
Procedure: as §2
Series [6] deals with C. parapsilosis. Nature of the series: microbe, parasite or virus in culture. The format is cell-based, Candida parapsilosis. The note with it: 48 h. The method in brief:
as §1

The subject of series [7] is C. neoformans cells. Nature of the series: Cell death pattern analysis by flow cytometry (Annexin V-FITC/PI). The note with it: treated at MIC, 12 h; PI + annexin V-FITC. The format is cell-based, Cryptococcus neoformans. The text has this:
Apoptosis includes a series of events occurring inside the cell, causing changes in plasma membrane, genetic material and various internal proteins, therefore leading to programmed cell death. One of the early markers of apoptosis is the translocation of a membrane phospholipid, phosphatidylserine, from the inner to the outer leaflet of the plasma membrane without altering the integrity of the plasma membrane. Annexin V-FITC interacts with the externalized phosphatidylserine, therefore showing the cell change towards apoptosis which can be analyzed using flow cytometry. The four quadrants in flow cytometry indicate different stages of the cells. The percentage depicts the population of the cells in a specific stage. Q1 corresponds to the percentage of cells undergoing necrosis, Q2 depicts the early apoptotic stage of the cells whereas Q4 corresponds to the cells in late-stage apoptosis and Q3 depicts the cells in the native state.
The treated cells along with a batch of untreated cells were centrifuged at 2000× g for 10 min at 4 °C and suspended in cold phosphate-buffered saline (PBS), followed by 2–3 washings with PBS. The harvested treated and untreated cells were then incubated with zymolyase for 1 h at ambient temperature to obtain cell protoplasm. The staining of obtained protoplasm was done using an Annexin V-FITC detection kit (Sigma-Aldrich, Saint Louis, DE, USA). The protoplasm of untreated cells was divided into 4 tubes (2 mL) and into 3 tubes a different staining agent was added while one was kept unstained. […] Furthermore, two more samples were prepared where protoplasm of 10d- and 10o-treated cells were stained with both PI and annexin V-FITC. All 6 samples were then analyzed by using an FACS Calibur (Becton-Dickinson, San Jose, CA, USA) at excitation of 488 nm (for FITC) and 560 nm (for PI) band filter. Approximately 10,000 cells were used for counting.
On the technique in general: A flow cytometer gives signals particle by particle.

The test system of series [8] is C. neoformans (ATCC350) cells. Nature of the series: CLSM PI uptake assay. Type of series: cell-based, Cryptococcus neoformans. The note with it: at MIC, 12 h, then PI. The protocol:
After incubation, treated and untreated cells were centrifuged at 2000× g for 10 min at 4 °C and suspended in cold PBS and followed by 2–3 washings with PBS. The cells were then incubated with PI (1.49 μM) for 1 h at room temperature with constant shaking (150× g rpm), and later harvested by centrifugation and suspended in PBS. Then, the cells were examined using confocal microscopy (Olympus Fluoview™ FV1000 SPD; Olympus, Tokyo, Japan) with a wavelength of >560 nm for PI. C. neoformans cells without treatment of active peptides served as a control.

Converted amounts (≈) assume the structure as drawn. “And” between values parts separate entries of the source, which are not always exact repeats. Equal values may be shown once. Read-outs that look alike come from different tables or passages of the source.

The compound `COC(=O)[C@H](Cc1ncn(Cc2ccccc2I)c1I)NC(=O)[C@@H](N)Cc1c[nH]c2ccccc12` [10o, Trp-His[1-(2-iodobenzyl)-5-iodo]-OMe] came in with an MIC in series [1] of 4.59 µg/mL (≈ 6.58 µM). In addition, the “MIC In Combination” value in series [2] (combination 10o + Amp B) is 0.287 µg/mL. Besides, in series [2] (combination 10o + Flu), the Effect result is reported as “Additive”, the “Fold Decrease in MIC” value was found to be 1.5 and the “MIC In Combination” value is 2.999 µg/mL. Moreover, the “MIC Alone” value in series [2] came out at 4.59 µg/mL (≈ 6.58 µM). For the same compound, in series [3], the IC50 (usually the point on the concentration scale where inhibition reaches its midpoint) was greater than 35.2 µg/mL and the MIC is greater than 64.0 µg/mL. In series [4], the “Cytotoxic nature” value is “non-cytotoxic”. In series [5], the CC50 – broadly, the concentration giving 50% cytotoxicity – at 18 h is greater than 100 µg/mL. In series [6], this compound yielded an IC50 greater than 35.2 µg/mL and an MIC greater than 64.0 µg/mL. Also, in series [7], the “Cell population in Q1 (necrosis)” value was determined as 2%, the “Cell population in Q2 (early apoptotic stage)” value came out at 1%, the “Cell population in Q3 (native state)” value amounted to 48.9% and the “Cell population in Q4 (late-stage apoptosis)” value is 48.1%. Further, in series [8], the “PI fluorescence of treated cells (CLSM)” value was “prominent red fluorescence”.
In the case of `COC(=O)[C@H](Cc1ncn(Cc2cc(C(C)(C)C)cc(C(C)(C)C)c2)c1I)NC(=O)[C@@H](N)Cc1c[nH]c2ccccc12` [10d, Trp-His[1-(3,5-di-tert-butylbenzyl)-5-iodo]-OMe], in series [1], the IC50 came to 2.20 µg/mL (≈ 3.22 µM) and the MIC came to 4.01 µg/mL (≈ 5.87 µM). Further, in series [2] (combination 10d + Amp B), the “Fold Decrease in MIC” value came to 16; the “MIC In Combination” value is 0.25 µg/mL and 0.250 µg/mL. Besides, in series [2] (combination 10d + Flu), the FICI stood at 0.19 and the “MIC In Combination” value was 0.501 µg/mL. In addition, in series [2], the “MIC Alone” value worked out at 4.01 µg/mL (≈ 5.87 µM). In series [3], this compound came in with an IC50 greater than 35.2 µg/mL and an MIC greater than 64.0 µg/mL. Further, the “Cytotoxic nature” value in series [4] is “non-cytotoxic”. In addition, the CC50 at 18 h in series [5] was greater than 100 µg/mL. Also, in series [6], the IC50 is greater than 35.2 µg/mL and the MIC was greater than 64.0 µg/mL. In series [7], the “Cell population in Q1 (necrosis)” value is given as 1.7%, the “Cell population in Q2 (early apoptotic stage)” value came out at 1.3%, the “Cell population in Q3 (native state)” value stood at 44.8% and the “Cell population in Q4 (late-stage apoptosis)” value was 52.2%. Further, the “PI fluorescence of treated cells (CLSM)” value in series [8] was “prominent red fluorescence”.
